Numbered stars: 1 amine (or outer) side, 2 acyl side, 3 side chain; on linkers, the order of the positions; unused ones are H or OH. Square brackets hold non-standard residues; d marks the D form. Peptide text beside a SMILES is read from it. * marks the point of attachment. X3 = NC[C@H](OC(=O)C(F)(F)F)[C@H](N[*:1])C(=O)[*:2]; Pro(cis-4-CF3) = O=C(O)[C@@H]1C[C@H](C(F)(F)F)CN1; Phe(3,4-(OMe)2) = COc1ccc(C[C@H](N)C(=O)O)cc1OC; Pro(trans-4-F) = O=C(O)[C@@H]1C[C@@H](F)CN1; Pro(5S-Me) = C[C@H]1CC[C@@H](C(=O)O)N1; Dab(3S-OH) = NC[C@H](O)[C@H](N)C(=O)O; 2Pal = N[C@@H](Cc1ccccn1)C(=O)O; ΔZArg = N=C(N)NCC/C=C(\N)C(=O)O; Gly(cPr) = N[C@H](C(=O)O)C1CC1; aThr = C[C@H](O)[C@H](N)C(=O)O; AllylGly = C=CC[C@H](N)C(=O)O; dOrn = NCCC[C@@H](N)C(=O)O; hSer = N[C@@H](CCO)C(=O)O; Orn = NCCC[C@H](N)C(=O)O; Dab = NCC[C@H](N)C(=O)O; NH(CH2)5NH2 = NCCCCCN*; NH(CH2)4NH2 = NCCCCN*
Experiments:
Experiment in all cases: MIC, broth microdilution (CLSI), reference strain
Conditions in all cases: CAMHB
[1] = tested on: Escherichia coli ATCC 25922
[2] = tested on: Pseudomonas aeruginosa ATCC 27853
[3] = tested on: Acinetobacter baumannii ATCC 19606
[4] = tested on: Staphylococcus aureus ATCC 13709

Compound	Ec: MIC Escherichia coli ATCC 25922 [1]	Pa: MIC Pseudomonas aeruginosa ATCC 27853 [2]	Ab: MIC Acinetobacter baumannii ATCC 19606 [3]	Sa: MIC Staphylococcus aureus ATCC 13709 [4]
N=C(N)NCC/C=C(\NC(=O)[C@H](CCCCN)NC(=O)[C@H](Cc1cnc[nH]1)NC(=O)[C@@H]1CCCN1C(=O)[C@@H](CCCN)NC(=O)CNC(=O)[C@@H](NC(=O)[C@@H](NC(=O)[C@@H](N)CCCCN)[C@@H](O)CN)[C@@H](O)CN)C(=O)N[C@H](CCCCN)C(=O)NCCCCN [22.1] (H-K[Dab(3S-OH)][Dab(3S-OH)]G[dOrn]PHK[ΔZArg][dK]-{NH(CH2)4NH2})	++ (≤8 μg/mL)	++ (≤8 μg/mL)	+ (≤32 μg/mL)	++ (≤8 μg/mL)
N=C(N)NCC/C=C(\NC(=O)[C@H](CCCCN)NC(=O)[C@H](Cc1c[nH]cn1)NC(=O)[C@@H]1CCCN1C(=O)[C@@H](CCCN)NC(=O)CNC(=O)[C@@H](NC(=O)[C@@H](NC(=O)[C@@H](N)CCCCN)[C@@H](O)CN)[C@@H](O)CN)C(=O)N[C@@H](CCCCN)C(=O)NCCCCCN [22.12] (H-K[Dab(3S-OH)][Dab(3S-OH)]G[dOrn]PHK[ΔZArg]K-{NH(CH2)5NH2}; C-terminus assumed)	++ (≤8 μg/mL)	− (>32 μg/mL)	− (>32 μg/mL)	++ (≤8 μg/mL)
N=C(N)NCC/C=C(\NC(=O)[C@H](CCCCN)NC(=O)[C@H](Cc1cnc[nH]1)NC(=O)[C@@H]1CCCN1C(=O)[C@@H](CCCN)NC(=O)CNC(=O)[C@@H](NC(=O)[C@@H](NC(=O)[C@@H](N)CCCCN)[C@@H](O)CN)[C@@H](O)CN)C(=O)N[C@@H](CCCCN)C(=O)O [22.29] (H-K[Dab(3S-OH)][Dab(3S-OH)]G[dOrn]PHK[ΔZArg]K-OH)	+ (≤32 μg/mL)	− (>32 μg/mL)	− (>32 μg/mL)	++ (≤8 μg/mL)
N=C(N)NCCC[C@@H](NC(=O)[C@H](CCCCN)NC(=O)[C@H](Cc1cnc[nH]1)NC(=O)[C@@H]1CCCN1C(=O)[C@@H](CCCN)NC(=O)CNC(=O)[C@@H](NC(=O)[C@@H](NC(=O)[C@@H](N)CCCCN)[C@@H](O)CN)[C@@H](O)CN)C(N)=O [22.30] (H-K[Dab(3S-OH)][Dab(3S-OH)]G[dOrn]PHK[dR]-NH2)	+ (≤32 μg/mL)	− (>32 μg/mL)	− (>32 μg/mL)	++ (≤8 μg/mL)
C[C@H](NC(=O)[C@H](CCN)NC(=O)[C@@H](N)CCCCN)C(=O)NCC(=O)N[C@H](CCCN)C(=O)N1C[C@H](F)C[C@H]1C(=O)N[C@@H](Cc1cnc[nH]1)C(=O)N[C@@H](CCCCN)C(=O)N/C(=C\CCNC(=N)N)C(=O)N[C@@H](CCCCN)C(=O)NCCCCN [14.7] (H-K[Dab]AG[dOrn][Pro(trans-4-F)]HK[ΔZArg]K-{NH(CH2)4NH2})	− (>32 μg/mL)	− (>32 μg/mL)	− (>32 μg/mL)	++ (≤8 μg/mL)
C[C@H](NC(=O)[C@H](CCN)NC(=O)[C@@H](N)CCCCN)C(=O)NCC(=O)N[C@H](CCCN)C(=O)N1C[C@@H](C(F)(F)F)C[C@H]1C(=O)N[C@@H](Cc1cnc[nH]1)C(=O)N[C@@H](CCCCN)C(=O)N/C(=C\CCNC(=N)N)C(=O)N[C@@H](CCCCN)C(=O)NCCCCN [14.15] (H-K[Dab]AG[dOrn][Pro(cis-4-CF3)]HK[ΔZArg]K-{NH(CH2)4NH2})	− (>32 μg/mL)	− (>32 μg/mL)	− (>32 μg/mL)	++ (≤8 μg/mL)
C[C@H](NC(=O)[C@H](CCN)NC(=O)[C@H](N)CCCCN)C(=O)NCC(=O)N[C@H](CCCN)C(=O)N1CCC[C@H]1C(=O)N[C@@H](Cc1cnc[nH]1)C(=O)N[C@@H](CCCCN)C(=O)N/C(=C\CCNC(=N)N)C(=O)N[C@@H](CCCCN)C(=O)NCCCCN [14.22] (H-[dK][Dab]AG[dOrn]PHK[ΔZArg]K-{NH(CH2)4NH2})	− (>32 μg/mL)	− (>32 μg/mL)	− (>32 μg/mL)	+ (≤32 μg/mL)

Further lines, results first:

Ec: MIC Escherichia coli ATCC 25922 [1]	Pa: MIC Pseudomonas aeruginosa ATCC 27853 [2]	Ab: MIC Acinetobacter baumannii ATCC 19606 [3]	Sa: MIC Staphylococcus aureus ATCC 13709 [4]	Compound
+ (≤32 μg/mL)	− (>32 μg/mL)	− (>32 μg/mL)	++ (≤8 μg/mL)	N=C(N)NCC/C=C(\NC(=O)[C@H](CCCCN)NC(=O)[C@H](Cc1cnc[nH]1)NC(=O)[C@@H]1CCCN1C(=O)[C@@H](CCCN)NC(=O)CNC(=O)[C@@H](NC(=O)[C@@H](NC(=O)[C@@H](N)CCCCN)[C@H](CN)OC(=O)C(F)(F)F)[C@@H](O)CN)C(=O)N[C@@H](CCCCN)C(=O)NCCCCN [32.1] (H-K[X3][Dab(3S-OH)]G[dOrn]PHK[ΔZArg]K-{NH(CH2)4NH2})
− (>32 μg/mL)	− (>32 μg/mL)	− (>32 μg/mL)	+ (≤32 μg/mL)	C=CC[C@H](NC(=O)[C@@H](NC(=O)[C@@H](N)CCCCN)[C@@H](O)CN)C(=O)NCC(=O)N[C@H](CCCN)C(=O)N1CCC[C@H]1C(=O)N[C@@H](Cc1cnc[nH]1)C(=O)N[C@@H](CCCCN)C(=O)N/C(=C\CCNC(=N)N)C(=O)O [216.1] (H-K[Dab(3S-OH)][AllylGly]G[dOrn]PHK[ΔZArg]-OH)
+ (≤32 μg/mL)	− (>32 μg/mL)	− (>32 μg/mL)	+ (≤32 μg/mL)	N=C(N)NCC/C=C(\NC(=O)[C@H](CCCCN)NC(=O)[C@H](Cc1cnc[nH]1)NC(=O)[C@@H]1CCCN1C(=O)[C@@H](CCCN)NC(=O)CNC(=O)[C@@H](NC(=O)[C@@H](NC(=O)[C@@H](N)CCCCN)[C@@H](O)CN)C1CC1)C(=O)O [213.2] (H-K[Dab(3S-OH)][Gly(cPr)]G[dOrn]PHK[ΔZArg]-OH)
− (>32 μg/mL)	− (>32 μg/mL)	− (>32 μg/mL)	− (>32 μg/mL)	C[C@H](NC(=O)[C@@H](NC(=O)[C@@H](N)CCCCN)[C@@H](O)CN)C(=O)NCC(=O)N[C@H](CCCN)C(=O)N1CCC[C@H]1C(=O)N[C@@H](CCO)C(=O)N[C@@H](CCCCN)C(=O)N/C(=C\CCNC(=N)N)C(=O)O [24.129] (H-K[Dab(3S-OH)]AG[dOrn]P[hSer]K[ΔZArg]-OH)
+ (≤32 μg/mL)	− (>32 μg/mL)	− (>32 μg/mL)	+ (≤32 μg/mL)	C[C@H](NC(=O)[C@@H](NC(=O)[C@@H](N)CCCCN)[C@@H](O)CN)C(=O)NCC(=O)N[C@H](CCCN)C(=O)N1CCC[C@H]1C(=O)N[C@@H](Cc1ccccn1)C(=O)N[C@@H](CCCCN)C(=O)N/C(=C\CCNC(=N)N)C(=O)O [24.106] (H-K[Dab(3S-OH)]AG[dOrn]P[2Pal]K[ΔZArg]-OH)
+ (≤32 μg/mL)	− (>32 μg/mL)	− (>32 μg/mL)	++ (≤8 μg/mL)	C[C@H](NC(=O)[C@@H](NC(=O)[C@@H](N)CCCCN)[C@@H](O)CN)C(=O)NCC(=O)N[C@H](CCCN)C(=O)N1[C@@H](C)CC[C@H]1C(=O)N[C@@H](Cc1cnc[nH]1)C(=O)N[C@@H](CCCCN)C(=O)N/C(=C\CCNC(=N)N)C(=O)O [24.145] (H-K[Dab(3S-OH)]AG[dOrn][Pro(5S-Me)]HK[ΔZArg]-OH)
− (>32 μg/mL)	− (>32 μg/mL)	− (>32 μg/mL)	+ (≤32 μg/mL)	C[C@H](NC(=O)[C@@H](NC(=O)[C@@H](N)CCCCN)[C@@H](O)CN)C(=O)NCC(=O)N[C@H](CCCN)C(=O)N1CCC[C@H]1C(=O)N[C@H](C(=O)N[C@@H](CCCCN)C(=O)N/C(=C\CCNC(=N)N)C(=O)O)[C@H](C)O [24.110] (H-K[Dab(3S-OH)]AG[dOrn]P[aThr]K[ΔZArg]-OH)
++ (≤8 μg/mL)	− (>32 μg/mL)	− (>32 μg/mL)	++ (≤8 μg/mL)	COc1ccc(C[C@H](NC(=O)[C@@H]2CCCN2C(=O)[C@@H](CCCN)NC(=O)CNC(=O)[C@H](CCCN)NC(=O)[C@@H](NC(=O)[C@@H](N)CCCCN)[C@@H](O)CN)C(=O)N[C@@H](CCCCN)C(=O)N/C(=C\CCNC(=N)N)C(=O)O)cc1OC [211.10] (H-K[Dab(3S-OH)][Orn]G[dOrn]P[Phe(3,4-(OMe)2)]K[ΔZArg]-OH)
+ (≤32 μg/mL)	− (>32 μg/mL)	− (>32 μg/mL)	++ (≤8 μg/mL)	C[C@H](NC(=O)[C@@H](NC(=O)[C@@H](N)CCCCN)[C@@H](O)CN)C(=O)NCC(=O)N[C@H](CCCN)C(=O)N1C[C@@H](C(F)(F)F)C[C@H]1C(=O)N[C@@H](Cc1cnc[nH]1)C(=O)N[C@@H](CCCCN)C(=O)N/C(=C\CCNC(=N)N)C(=O)O [24.143] (H-K[Dab(3S-OH)]AG[dOrn][Pro(cis-4-CF3)]HK[ΔZArg]-OH)
